Measured values from US5266596A, “L- or DL-threo-3-(3,4-dihydroxyphenyl)serine for the treatment of urinary incontinence” (priority 1991, dated 1993).

How the values were obtained:
[1] = in vivo; cited from earlier work
[2] = Acute toxicity (LD50) in mouse; details: in vivo
circulating system = details: cited from earlier work
patients = details: conventional use; cited from earlier work
[3] = system: patients with urinary incontinence; assay: Clinical test of L-threo-DOPS in patients with urinary incontinence (clinical effect and side effects); assay type: in vivo, human
Experimental: L-Threo-DOPS was administered (100 mg×3 times, a 4 weeks) to 13 patients with urinary incontinence in the clinic of urology. For estimating the effect on urinary incontinence and side effects, the patients were investigated medically before and after the treatment with L-Threo-Dops. […] Further, by urodynamic study, the patients were classified into urgent urinary incontinence (7 patients), stress urinary incontinence (3 patients) and other condition (3 patients).

[4] = system: aromatic L-amino acid decarboxylase; details: cited from earlier work
Harmalin-induced tremor = details: in vivo; cited from earlier work
urinary bladder = assay: Inner pressure of urinary bladder and urethra measured before and after administration (urodynamics); assay type: in vivo, human; details: some cases
Experimental: L-Threo-DOPS was administered (100 mg×3 times, a 4 weeks) to 13 patients with urinary incontinence in the clinic of urology. For estimating the effect on urinary incontinence and side effects, the patients were investigated medically before and after the treatment with L-Threo-Dops. The patients were 6 males and 7 females in the range of 35 to 76 years old, and were 51.8 years old in average. Further, by urodynamic study, the patients were classified into urgent urinary incontinence (7 patients), stress urinary incontinence (3 patients) and other condition (3 patients).

[5] = all 13 patients, 100 mg×3 times, 4 weeks
[6] = all of the cases, summary statement

For N[C@H](C(=O)O)[C@H](O)c1ccc(O)c(O)c1 (relative stereo) [DL- or L-threo-DOPS, DL- or L-threo-3-(3,4-dihydroxyphenyl)serine], the “Conversion into 1-NA after administration” value [1] is listed as “gradually converted into 1-NA” and the Distribution after administration [1] is listed as “distributed both centrally and peripherally”.

N[C@H](C(=O)O)[C@H](O)c1ccc(O)c(O)c1 (relative stereo) [active ingredient, DL- or L-threo-3-(3,4-dihydroxyphenyl)serine] showed an LD50 ([2]; ip, intraperitoneal) of about 10000 mg/kg and an LD50 ([2]; oral) of at least 10000 mg/kg.

For NC[C@H](O)c1ccc(O)c(O)c1 [1-NA, 1-noradrenaline], the Duration (circulating system; after injection) is given as “shorter, rather instantaneous” and the “Effects on circulating system” value (circulating system; immediately after injection) is given as “drastic effects on circulating system to cause hypertension and palpitation”.

For CN(C)CCCN1c2ccccc2CCc2ccccc21 [Imipramine], the Side effects (patients) is given as “side effects such as thirst, constipation and nasal obstruction”.

In the case of N[C@H](C(=O)O)[C@H](O)c1ccc(O)c(O)c1 [L-threo-DOPS, L-threo-3-(3,4-dihydroxyphenyl)serine], the Side effect ([3]; Case 1, 300 mg/day × 4 weeks) is reported as “None”, the Side effect ([3]; Case 2, 300 mg/day × 4 weeks) is reported as “None” and the Side effect ([3]; Case 3, 300 mg/day × 4 weeks) is reported as “None”. The Side effect ([3]; Case 4, 300 mg/day × 4 weeks) was “None”, the Side effect ([3]; Case 5, 300 mg (3) × 4 weeks) was “None” and the Side effect ([3]; Case 6, 300 mg (3) × 4 weeks) was “None”. The Side effect ([3]; Case 7, 300 mg (3) × 4 weeks) was “None”, the Clinical effect ([3]; Case 7, urgent urinary incontinence, 300 mg (3) × 4 weeks) was “improved” and the Side effect ([3]; Case 8, 300 mg (3) × 4 weeks) was “None”. For the same compound, the Clinical effect ([3]; Case 8, stress incontinence, 300 mg (3) × 4 weeks) was “improved”, the Side effect ([3]; Case 9, 300 mg/day × 4 weeks) was “None” and the Clinical effect ([3]; Case 9, stress incontinence, 300 mg/day × 4 weeks) was “Improved”. The Side effect ([3]; Case 10, 300 mg/day × 4 weeks) was “None”, the Side effect ([3]; Case 11, 300 mg/day × 4 weeks) was “None” and the Side effect ([3]; Case 12, 300 mg/day × 4 weeks) was “None”. The Side effect ([3]; Case 13, 300 mg/day × 4 weeks) was “None”, the Clinical effect ([3]; Case 13, Enuresis, 300 mg/day × 4 weeks) was “Improved” and the “Cases with disappearance of the symptoms or improvement to a moderate degree or more, total” value [3, 5] was 9 cases. For the same compound, the “Remaining cases in which L-threo-DOPS was almost ineffective” value [3, 5] was 4 cases, the “Side effects such as urine discharge disturbance, palpitation and hypertension” value ([3]; all cases, 100 mg×3 times, 4 weeks) was “not noted” and the Side effects [3, 6] was “no side effects were noted”. For the same compound, the Tendency of dysuria [3, 6] was “even tendency of dysuria was not noted”, the “Cases with clinical effect of more than a slight improvement” value ([3]; all patients, 100 mg×3 times, 4 weeks) was 10 out of 13 and the “Cases with disappearance of the symptoms or improvement to a moderate degree or more” value ([3]; other condition, 100 mg×3 times, 4 weeks) was 2 out of 3. For the same compound, the Patient satisfaction ([3]; patients improved, 100 mg×3 times, 4 weeks) was “highly satisfactory”, the “Cases with disappearance of the symptoms or improvement to a moderate degree or more” value ([3]; stress urinary incontinence, 100 mg×3 times, 4 weeks) was 2 out of 3 and the “Effect on urinary incontinence” value ([3]; summary statement) was “excellent effect on urinary incontinence”. The “Cases with disappearance of the symptoms or improvement to a moderate degree or more” value ([3]; urgent urinary incontinence, 100 mg×3 times, 4 weeks) was 5 out of 7, the “Decarboxylation by aromatic L-amino acid decarboxylase to natural 1-noradrenaline” value [4] was “undergo decarboxylation by the action of aromatic L-amino acid decarboxylase to produce natural 1-noradrenaline” and the “Action on Harmalin-induced tremor” value (Harmalin-induced tremor) was “inhibitory action on Harmalin-induced tremor”. For the same compound, the “Volume of the urinary bladder” value (urinary bladder) was “increased volume of the urinary bladder was confirmed”.
